Measured values published in patent publication US12098352B2, “Stem cell-based lung-on-chip models” (EMULATE, INC., priority 2018, dated 2024).

Tests used:
[1] = tested on: Alveolus-Chip epithelium/endothelium barrier; assay: Barrier function assay (fluorescent dextran / Lucifer Yellow leakage) in Open-Top Alveolus-Chip; type: cell-based, human
Source text: We studied interaction between different chip compartments by perturbating the system with biological and chemical stressors such as LPS, and H2O2 which are known to induce a reversible disruption of the cellular monolayer after acute administration both in vivo and in vitro. […] The presence of a strong barrier is indirectly confirmed by the presence of continuous pattern of E-cad and VE-cad in the monolayer of Alveolar epithelial and endothelial cell, respectively.
Given the limited availability of in vitro models that can closely mimic human alveolar epithelium function and/or its disease states, we explored whether a microfluidic Alveolus-Chip lined with the primary alveolar epithelial cells on an artificial lung stroma with embedded primary lung fibroblasts and pulmonary microvascular endothelial cells would model a lung injury state. To test this, we exposed the Alveolus-Chips to an acute damage generated by exposure to H2O2 under continuous infusion through the epithelium top channel, similarly to as it is […] administered in mice.
Air-Liquid interface was replaced by phenol red free MEM (GIBCO: 51200-038) and medium in the bottom fluidical spiraled channel substituted by one containing 1 mg/ml Lucifer Yellow CH, Lithium Salt (ThermoFisher: L453) or 0.1 mg/ml Dextran, Fluorescein, 3000 MW, Anionic, Lysine Fixable (ThermoFisher: D3306). Leakage of the fluorescent probe from the lumen of the spiraled channel to the epithelial compartment was collected from the outlet reservoirs after indicated hours of perfusion. The fluorescence intensity was measured with a 96-well fluorimeter at excitation/emission indicated by the manufacturer.

platelets = assay: Blood perfusion of LPS pretreated Alveolar-chip vascular channel; type: cell-based, human; details: LPS pretreated (inflamed) chip
Experimental: For further validation on the functionality of the endothelial compartment, the vascular compartment comprising an endothelial cell lining, was exposed to blood under flow. In one embodiment, an LPS pretreated microfluidic Alveolar-chip was perfused with blood, i.e. blood was flowed through the spiral channel. In one embodiment, a sample of human blood, e.g. 5 ml of whole blood isolated the same day from a healthy person (e.g. in citrate or heparin anticoagulation compounds) was perfused through the bottom spiraled channel with Ca2+ and Mg2+ to counteract the anticoagulation compounds, at 30 ml/hour. […] Left, schematic diagrams of the upper channels blue and ports blue dots, and spiral lower vascular endothelial channel red and ports red dots. […] Larger pink areas represent aggregation of platelets and adhered platelets are observed at the lower sharp bend.

IL-6, IL-8 and MCP-1 = assay: Cytokine secretion in chip medium effluent (ELISA); type: cell-based, human
Source text: We studied interaction between different chip compartments by perturbating the system with biological and chemical stressors such as LPS, and H2O2 which are known to induce a reversible disruption of the cellular monolayer after acute administration both in vivo and in vitro. […] To assess changes in the barrier function following the exposure to these insults, we added a fluorescent dye (e.g. […]—Dextran-FITC) to the endothelial compartment, which is under control condition confirmed that the endothelium and epithelium form a barrier to the dies. The presence of a strong barrier is also indirectly confirmed by the presence of continuous pattern of E-cad and VE-cad in the monolayer of Alveolar epithelial and endothelial cell, respectively. […] We also decoupled the effect of single biological component to the inflammatory response by selectively removing them from the system in an integrated matrix. […] In fact, the recorded value of IL-6 and IL-8 is not the algebraic sum of the concentration of the factors released by the single cellular components. […]
The amount of Surfactant B and C was collected from chip epithelial cell surface by PBS washing and measured by Human SFTPB/Surfactant Protein B ELISA Kit (Sandwich ELISA)—LS-F4439 and Human SFTPC/Surfactant Protein C ELISA Kit (Sandwich ELISA)—LS-F12438 (LifeSpanBioScience) following the manufacturer's protocol. The color reaction was measured at 450 nm with a photometer (specification). […] Similarly, the presence of IL-6, IL-8 and MPC in medium samples was detected by Human TLR-induced Cytokines II: Microbial-induced Multi-Analyte ELISArray Kit (MEH-008A) (Qiogen) following the manufacturer's protocol. The color reaction was measured at 450 nm with a photometer (specification). […]

[2] = tested on: epithelium-endothelium co-culture perfused with human whole blood; details: LPS treatment of the alveolar lumen of epithelium-endothelium co-culture; cited from earlier work

Substance: Lipopolysaccharide [LPS]
- effect of stressor on barrier function ([1]; LPS 10 ng/ml and/or H2O2 10 mM): causes barrier breakdown and disruption of intracellular junction
- reversibility of barrier breakdown after removal of stressor ([1]; additional 2 days in fresh medium): barrier breakdown in our chip was reversable
- platelet response on blood perfusion (platelets): platelet adhesion and aggregation
- release of IL-6, IL-8 and MCP-1 in medium effluent (IL-6, IL-8 and MCP-1; 24 hours of exposure): increases of lung specific cytokines
- IL-6, IL-8 and MCP-1 secretion, fold increase in relation to untreated controls (IL-6, IL-8 and MCP-1; LPS stimulation, co-presence of epithelial cells): 40-90 fold
- thrombotic events [2]: triggered thrombotic events
